Patent US20200216493A1, “ANTIMICROBIAL PEPTIDES” (FERRING B.V., priority 2016, published 2020)
≈ marks a conversion by molar mass, not a printed value. Where two headings read alike, the source gives them in different places.

How the values were obtained:
E.coli = format: cell-based, Escherichia coli; details: for MIC ratio Coli/Staph: ratio of E. coli MIC to S. aureus MIC
S.aureus = format: cell-based, Staphylococcus aureus
Summary of the method: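 Broth microdilution in Mueller-Hinton broth, ~5×10^5 cfu/mL inoculum, twofold compound dilutions in duplicate, 16–20 h at 37 °C with shaking. MIC (μg/mL) is the lowest concentration giving OD600 <0.08.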

S. aureus (14 isolates) = format: cell-based, Staphylococcus aureus; details: 20 h
Procedure: (§1) The broth microdilution susceptibility assay followed the procedure described by the Clinical and Laboratory Standards Institute (CLSI) in CLSI document M7-A10.
(§2) The following bacteria isolates were tested:
(§3) S.aureus, S.epidermidis, E.faecalis, and E.faecium colonies were grown on TSA (Tryptone Soya Agar; cat.N. P05012A -OXOID) S.pneumoniae and S.pyogenes colonies were grown on TSASB ((TSA) Agar +5% Sheep Blood; cat.N. PB5012A -OXOID). An inoculum was prepared by making a direct saline suspension of isolated colonies selected from an 18 to 24 hours agar plate incubated at 35±2 ° C. in ambient air. The suspension was adjusted to achieve a turbidity equivalent to a 0.5 McFarland turbidity standard (1 to 2 ×10^8 Colony Forming Units (CFU)) and diluted 200 fold within 15 minutes in broth. (S.aureus, S.epidermidis, E.faecalis, and E.faecium were diluted in CAMHB: Mueller Hinton Broth 2, Cation-Adjusted (cat. N. 90922 Fluka); S.pneumoniae and S.pyogenes were diluted in CAMHB +2.5% lysed horse blood. All broth contained 0.002% polysorbate 80.
(§4) 96-well plates were prepared containing 1 μL of the test compound (at 100× desired test concentration in 100% DMSO); compounds were tested at 8 final concentrations, i.e. 16 μg/mL, 8 μg/mL, 4 μg/mL, 2 μg/mL, 1 μg/mL, 0.5 μg/mL, 0.25 μg/mL, and 0.125 μg/mL. 100 μL of the broth dilution was dispensed in each well plate to have a final bacterial concentration in plate of ˜5×10^5 CFU/mL. The plates were incubated at 35±2° C. in ambient air for 20 hours.

[1] = system: S. epidermidis (5 isolates); format: cell-based, Staphylococcus epidermidis; details: 20 h
Procedure: as §1, §2, §3, §4

[2] = system: S. pneumoniae (8 isolates); format: cell-based, Streptococcus pneumonia; details: 20 h
Procedure: as §1, §2, §3, §4

S. pyogenes (2 isolates) = format: cell-based, Streptococcus pyogenes; details: 20 h
Procedure: as §1, §2, §3, §4

E. faecalis (5 isolates) = format: cell-based, Enterococcus faecalis; details: 20 h
Procedure: as §1, §2, §3, §4

E. faecium (3 isolates) = format: cell-based, Enterococcus faecium; details: 20 h
Procedure: as §1, §2, §3, §4

in vitro = format: cell-based; details: human, HepG2 cells
Procedure: Compounds were tested for cytotoxicity to a mammalian cell line HepG2 (Human hepatocyte carcinoma from ECACC (85011430)). Hep G2 cells were seeded into 96-well plates, 7500 cells/well in 100 μl medium (Minimum Essential Medium (Gibco 21090) supplemented with 2 mM L-Glutamine, 1% non-essential amino acids and 10% fetal bovine serum) and incubated for 20 hours at 37° C., 5% CO2. 100 μL of fresh medium containing a test compound or DMSO (for control) at 2× final concentration were added and incubated for 48 hours at 37° C., 5% CO2. The final concentration of DMSO in plate was 1%. At the end of this incubation, 20 μl MTT (Thiazolyl Blue Tetrazolium Bromide) solution 5 mg/ml in H2O (0.5 mg/ml final in well) was added to all wells. Cells were incubated with MTT for 4 hours at 37° C., 5% CO2. After incubation, medium containing MTT was removed; 200 μl of DMSO was added in each well and plates were put on a shaker for 5 minutes. Absorbance was read on a SpectraMax plate reader at 570 nm. Specific absorbance (Specific A570) was calculated by subtracting the mean absorbance values of the blank wells (no HepG2 cells) from each well. Control values were determined from wells containing cells and treated with medium+1% DMSO only (no test compound). % viability was calculated as:
(Specific A570test compound/Specific A570control)×100.

CC[C@H](C)[C@H](NC(=O)[C@@H](Cc1ccccc1)NC)C(=O)N[C@@H](CO)C(=O)N[C@H](CCC(N)=O)C(=O)N[C@@H](C(=O)N[C@H](C(=O)N[C@@H](CO)C(=O)N[C@H]1C(=O)N[C@@H](C)C(=O)N[C@@H](CCCCNC(=N)N)C(=O)N[C@@H]([C@@H](C)CC)C(=O)O[C@H]1C)[C@@H](C)CC)[C@@H](C)CC [Compound 5, H-D-MePhe-Ile-Ser-D-Gln-D-aIle-Ile-Ser-c(D-Thr-Ala-Har-Ile)]
MIC E. coli (E.coli): 10 µg/mL (≈ 7.95 µM) | MIC ratio Coli/Staph (E.coli): 77 | MIC S. aureus (S.aureus): 0.13 µg/mL (≈ 0.103 µM) | S. Aureus (14) MIC90 (S. aureus (14 isolates)): 0.25 µg/mL | S. epidermidis (MIC90) (5) [1]: ≤0.12 µg/mL | S. pneumoniae (8) MIC90 [2]: ≤0.12 µg/mL | S. pyogenes (2) MIC90 (S. pyogenes (2 isolates)): ≤0.12 µg/mL | E. faecalis (5) MIC90 (E. faecalis (5 isolates)): 0.5 µg/mL | E. faecium (3) MIC90 (E. faecium (3 isolates)): 0.5 µg/mL | viability at 48 h, 100 µM (in vitro): 117% | MIC C. difficile (C. difficile; anaerobic broth microdilution, read after 44-48 hours, Example 17b): <0.03 to 0.06 µg/mL | MIC B. fragilis (B. fragilis): >32 µg/mL

CC[C@H](C)[C@H](NC(=O)[C@@H](Cc1ccc(OC)cc1)NC)C(=O)N[C@@H](CO)C(=O)N[C@H](CCC(N)=O)C(=O)N[C@@H](C(=O)N[C@H](C(=O)N[C@@H](CO)C(=O)N[C@H]1C(=O)N[C@@H](C)C(=O)N[C@@H](CCCCNC(=N)N)C(=O)N[C@@H]([C@@H](C)CC)C(=O)O[C@H]1C)[C@@H](C)CC)[C@@H](C)CC [Compound 74, H-D-MeTyr(Me)-Ile-Ser-D-Gln-D-aIle-Ile-Ser-c(D-Thr-Ala-Har-Ile)]
MIC E. coli (E.coli): >16 µg/mL | MIC ratio Coli/Staph (E.coli): >530 | MIC S. aureus (S.aureus): 0.06 µg/mL (≈ 0.0466 µM) | S. Aureus (14) MIC90 (S. aureus (14 isolates)): ≤0.12 µg/mL | S. epidermidis (MIC90) (5) [1]: ≤0.12 µg/mL | S. pneumoniae (8) MIC90 [2]: ≤0.12 µg/mL | S. pyogenes (2) MIC90 (S. pyogenes (2 isolates)): ≤0.12 µg/mL | E. faecalis (5) MIC90 (E. faecalis (5 isolates)): 1 µg/mL | E. faecium (3) MIC90 (E. faecium (3 isolates)): 0.5 µg/mL | viability at 48 h, 100 µM (in vitro): 136% | MIC C. difficile (C. difficile): 0.06 to 0.12 µg/mL | MIC B. fragilis (B. fragilis): >32 µg/mL

CC[C@H](C)[C@H](NC(=O)[C@@H](Cc1ccc2ccccc2c1)NC)C(=O)N[C@@H](CO)C(=O)N[C@H](CCC(N)=O)C(=O)N[C@@H](C(=O)N[C@H](C(=O)N[C@@H](CO)C(=O)N[C@H]1C(=O)N[C@@H](C)C(=O)N[C@@H](CCCCNC(=N)N)C(=O)N[C@@H]([C@@H](C)CC)C(=O)O[C@H]1C)[C@@H](C)CC)[C@@H](C)CC [Compound 75, H-D-Me2Nal-Ile-Ser-D-Gln-D-aIle-Ile-Ser-c(D-Thr-Ala-Har-Ile)]
MIC E. coli (E.coli): >16 µg/mL | MIC ratio Coli/Staph (E.coli): >530 | MIC S. aureus (S.aureus): 0.06 µg/mL (≈ 0.0459 µM) | S. Aureus (14) MIC90 (S. aureus (14 isolates)): ≤0.12 µg/mL | S. epidermidis (MIC90) (5) [1]: ≤0.12 µg/mL | S. pneumoniae (8) MIC90 [2]: ≤0.12 µg/mL | S. pyogenes (2) MIC90 (S. pyogenes (2 isolates)): ≤0.12 µg/mL | E. faecalis (5) MIC90 (E. faecalis (5 isolates)): ≤0.12 µg/mL | E. faecium (3) MIC90 (E. faecium (3 isolates)): ≤0.12 µg/mL | viability at 48 h, 100 µM (in vitro): 119% | MIC C. difficile (C. difficile): 0.015 to 0.03 µg/mL | MIC B. fragilis (B. fragilis): >32 µg/mL
